The subject of data set [1] is Complete Freund's Adjuvant (CFA)-induced thermal hyperalgesia. In words: CFA-induced thermal hyperalgesia (paw withdrawal latency, Hargreaves). The class given is in vivo, male CD-1 mice. As to conditions: 2.5 mmol/kg by oral gavage at 48 hours post-CFA; latency measured 30 minutes to 6 hour after drug; ANOVA drug effect p=0.014. As for the experimental part: To determine whether the SCP-M series has analgesic activity, its effect on Complete Freund's Adjuvant (CFA)—induced thermal hyperalgesia was accessed. Under halothane anesthesia, male CD-1 mice were injected with 0.1 ml of CFA (Calbiochem, USA) to the glabrous surface of one hind paw. When injected into the footpad, CFA produces localized inflammation and hyperalgesia that appears within two hours and is present for 7 to 10 days (Iadorola, et al., 1988). At 48-hours post-CFA (time of peak hyperalgesia), each mouse received by oral gavage 2.5 mmol/kg of SCP-M1 or vehicle. The latency to withdraw the paw from a thermal stimulus (Hargreaves, et al., 1988) was measured using an analgesiometer (IITC Life Sciences, Inc., Woodland Hills, Calif.) according to the technique of Hargreaves, et al. The stimulus intensity was set to produce baseline latencies of about 10-15 seconds, and a 20 second maximum latency was used. Thermal hyperalgesia was measured before drug administration (pre-drug baseline), and again at 30 minutes, 1 hour, 2 hour, 3 hour, 4 hour, 5 hour, and 6 hour after drug administration.
No other statistically significant effects were found (time effect: F(6,90)=0.486, p=0.817; drugxtime interaction: F(6,90)=0.634, p=0.793). The effects of SCP-M1 on CFA-induced thermal hyperalgesia are shown as a percentage of pre-drug baseline in FIG. 1.

In data set [2] the test system is human hepatocytes (HEPG-2). As for the experimental part: (§1) The hepatotoxic effects of SCP-M1 were evaluated in human hepatocytes (HEPG-2) and in human primary cultures of normal liver cells. […] Phase contrast, microscopy, Trypan blue exclusion, Hoechst staining, and FAS-ligand and CAR (constitutive androstane receptor) induction were used as criteria. […] HEPG-2 cells were grown and maintained in EMEM medium containing NEAA (nonessential amino acids), supplemented with 10% fetal bovine serum (FBS), and incubated at 37° C. with a constant supply of 5% CO2. Primary human liver cells were grown in HCM medium (Walkersville, Md.), and maintained in HMM medium (Walkersville, Md.) at 37° C. with 5% CO2. 80% confluent cultures of HEPG2 and primary hepatocytes growing in 6- and 24-well plates, respectively were held 6-8 hr in serum-free medium (EMEM, 0.5% FBS for HEPG2 and HMM [Clonetics, Walkersville, Md.] for primary hepatocytes) before the addition of analgesics.

In data set [3] the test system is human hepatocytes in primary cultures. The experiment in a line: Hepatotoxic effect in primary human hepatocytes, Trypan blue exclusion and Hoechst staining. The class given is cell-based. As for the experimental part: […]. […] […].
Hoechst staining was employed for detection of apoptosis. […] 45 min.

In data set [4] the test system is CAR (constitutive androstane receptor). As for the experimental part:
as §1
(§2) The up-regulation of FAS-ligand (FAS-L) and activation of CAR (constitutive androstane receptor) were analyzed by Western blot. Briefly, the cell extracts were made, and adjusted for protein concentrations by the Bio-rad method. About 15-20 μg protein were loaded onto an 8-16% gel (Bio-rad), and electrophoresis was conducted for 2 hr at 120 V. The proteins were transferred onto nitrocellulose membrane at 30 V for 60 min at 4° C.

A further data set has as its system FAS-ligand. As for the experimental part: as §1, §2

The structures appear in SMILES notation.

For the compound `O=C(CNS(=O)(=O)c1ccccc1C(=O)O)Nc1ccc(O)cc1` [SCP-M1, 2-{[(4-hydroxyphenyl)carbamoyl]methylsulfamoyl}benzoic acid], in data set [1], the “analgesic effect on CFA-induced thermal hyperalgesia vs vehicle treated controls” value is given as “significant analgesic effect”. In data set [2], the “apoptotic cell death by Hoechst staining” value is “practically ineffective in inducing cell death”. In addition, the “apoptosis by Trypan blue exclusion and Hoechst staining” value in data set [3] (human) was “enhanced apoptosis was caused by acetaminophen but not SCP-M1”. For the same compound, the CAR activation result in data set [4] is “reduced effects”. Further, in the data set on FAS-ligand, the “pro-apoptotic FAS-ligand up-regulation” value is reported as “reduced effects”.

For the compound `CC(=O)Nc1ccc(O)cc1` [acetaminophen, reference compound], the “apoptosis by Trypan blue exclusion and Hoechst staining” value in data set [3] (human hepatocytes in primary cultures, treated 6-8 hr at 37° C.) is recorded as “enhanced apoptosis”.

(Values after patent US6806291B1, “Analgesic compounds, their synthesis and pharmaceutical compositions containing them” (The Foundation for the LSU Health Sciences Center, priority 2003, dated 2004).)
